# Measurements published in US20240254118A1, “PRMT5 INHIBITORS AND USES THEREOF” (Gilead Sciences, Inc., priority 2022, published 2024).
# pEC50: −log10 of the molar value.
# Legend:
# [1] = system: HCT116 MTAP-deleted cells; assay: Cell viability assay (CellTiter-Glo, 7 days), HCT116 MTAP-deleted; details: Homo sapiens, HCT-116, 168 h
# [2] = system: SDMA signal (PRMT5 inhibition) in HCT116 MTAP-deleted cells; assay: Symmetric di-methyl arginine image-based high content screen assay (SDMA assay), HCT116 MTAP-deleted; assay type: cell-based; details: SDMA assay; for pEC50: Homo sapiens, HCT-116, 72 h, 3 days of treatment, cell line not given, taken as HCT116 MTAP-deleted, read-out: EC50 (SDMA assay); for EC50 selectivity (SDMA assay): taken as HCT116 WT versus MTAP-deleted
# Outline: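 Read-out: per-cell mean SDMA immunofluorescence (Alexa Fluor 488 secondary), cells segmented by DAPI on a high-content imager. Compound exposure in HCT116 MTAP-deleted cells lasted until fixation on Day 3; overnight 4° C primary anti-SDMA antibody staining.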
Structure (SMILES),pEC50 [2],EC50 selectivity (SDMA assay) [2],CC50 [1] [nM]
"Cn1ncc2c(N)nc3ccc(C(=O)N(Cc4nc5ccccc5s4)N4CCC(F)(F)C4=O)cc3c21 [Example 169, 4-amino-N-(1,3-benzothiazol-2-ylmethyl)-N-(3,3-difluoro-2-oxo-pyrrolidin-1-yl)-1-methyl-pyrazolo[4,3-c]quinoline-8-carboxamide]",8.30 to 9.00,14,< 100
"Cn1ncc2c(N)nc3ccc(C(=O)N(Cc4ccc(C(F)(F)F)cn4)N4CC5(CC5)CC4=O)cc3c21 [Example 170, 4-amino-1-methyl-N-(6-oxo-5-azaspiro[2.4]heptan-5-yl)-N-((5-(trifluoromethyl)pyridin-2-yl)methyl)-1H-pyrazolo[4,3-c]quinoline-8-carboxamide]",> 9.00,146,< 100
"Cn1ncc2c(N)nc3ccc(C(=O)N(Cc4ccc(C(F)(F)F)cn4)N4CCC(F)(F)C4=O)cc3c21 [Example 171, 4-amino-N-(3,3-difluoro-2-oxo-pyrrolidin-1-yl)-1-methyl-N-[[5-(trifluoromethyl)-2-pyridyl]methyl]pyrazolo[4,3-c]quinoline-8-carboxamide]",> 9.00,571,< 100
"CN(C(=O)c1ccnn1C)N(Cc1ccc(C(F)(F)F)cn1)C(=O)c1ccc2nc(N)c3cnn(C)c3c2c1 [Example 175, 4-amino-N′,1-dimethyl-N′-(1-methyl-1H-pyrazole-5-carbonyl)-N-((5-(trifluoromethyl)pyridin-2-yl)methyl)-1H-pyrazolo[4,3-c]quinoline-8-carbohydrazide]",8.30 to 9.00,19,< 100
"CC(=O)N(C)N(Cc1ccc(C#CC(C)(C)S(C)(=O)=O)cc1F)C(=O)c1ccc2nc(N)c3cnn(C)c3c2c1 [Example 176, N′-acetyl-4-amino-N-(2-fluoro-4-(3-methyl-3-(methylsulfonyl)but-1-yn-1-yl)benzyl)-N′,1-dimethyl-1H-pyrazolo[4,3-c]quinoline-8-carbohydrazide]",8.30 to 9.00,35,100 to 1000
"CC(=O)N(C)N(Cc1ccc(C#CC2(C(F)F)CC2)cc1F)C(=O)c1ccc2nc(N)c3cnn(C)c3c2c1 [Example 177, N′-acetyl-4-amino-N-(4-((1-(difluoromethyl)cyclopropyl)ethynyl)-2-fluorobenzyl)-N′,1-dimethyl-1H-pyrazolo[4,3-c]quinoline-8-carbohydrazide]",8.30 to 9.00,36,< 100
"Cn1ncc2c(N)nc3ccc(C(=O)N(Cc4ccc(C(F)(F)F)cn4)N4CC(C(F)(F)F)OC4=O)cc3c21 (stereo not drawn) [Example 178, 4-amino-1-methyl-N-(2-oxo-5-(trifluoromethyl)oxazolidin-3-yl)-N-((5-(trifluoromethyl)pyridin-2-yl)methyl)-1H-pyrazolo[4,3-c]quinoline-8-carboxamide]",< 8.30,138,100 to 1000
"COCCN(C)N(Cc1ccc(C(F)(F)F)cn1)C(=O)c1ccc2nc(N)c3cnn(C)c3c2c1 [Example 179, 4-amino-N′-(2-methoxyethyl)-N′,1-dimethyl-N-((5-(trifluoromethyl)pyridin-2-yl)methyl)-1H-pyrazolo[4,3-c]quinoline-8-carbohydrazide]",> 9.00,318,< 100
"COCCN(C)N(Cc1ccc(C(F)(F)F)cn1)C(=O)c1cc2c(cc1F)nc(N)c1cnn(C)c12 [Example 180, 4-amino-7-fluoro-N′-(2-methoxyethyl)-N′,1-dimethyl-N-((5-(trifluoromethyl)pyridin-2-yl)methyl)-1H-pyrazolo[4,3-c]quinoline-8-carbohydrazide]",> 9.00,50,< 100
"CN(C(=O)C12CC(CO1)C2)N(Cc1ccc(C(F)(F)F)cn1)C(=O)c1ccc2nc(N)c3cnn(C)c3c2c1 [Example 185, 4-amino-N′,1-dimethyl-N′-(2-oxabicyclo[2.1.1]hexane-1-carbonyl)-N-[[5-(trifluoromethyl)-2-pyridyl]methyl]pyrazolo[4,3-c]quinoline-8-carbohydrazide]",> 9.00,33,< 100
"CN(C(=O)C12COC(C1)C2)N(Cc1ccc(C(F)(F)F)cn1)C(=O)c1ccc2nc(N)c3cnn(C)c3c2c1 [Example 186, 4-amino-N′,1-dimethyl-N′-(2-oxabicyclo[2.1.1]hexane-4-carbonyl)-N-[[5-(trifluoromethyl)-2-pyridyl]methyl]pyrazolo[4,3-c]quinoline-8-carbohydrazide]",8.30 to 9.00,66,100 to 1000
"CN(C(=O)C(C)(F)F)N(Cc1ccc(C(F)(F)F)cn1)C(=O)c1ccc2nc(N)c3cnn(C)c3c2c1 [Example 189, 4-amino-N′-(2,2-difluoropropanoyl)-N′,1-dimethyl-N-[[5-(trifluoromethyl)-2-pyridyl]methyl]pyrazolo[4,3-c]quinoline-8-carbohydrazide]",> 9.00,13,< 100
"Cn1ncc2c(N)nc3ccc(C(=O)N(Cc4ccc(C(F)(F)F)cn4)N4CC5(CC5)OC4=O)cc3c21 [Example 190, 4-amino-1-methyl-N-(5-oxo-4-oxa-6-azaspiro[2.4]heptan-6-yl)-N-[[5-(trifluoromethyl)-2-pyridyl]methyl]pyrazolo[4,3-c]quinoline-8-carboxamide]",> 9.00,144,< 100
"Cn1ncc2c(N)nc3ccc(C(=O)N(Cc4ccc(C(F)(F)F)cn4)N4CC5(COC5)OC4=O)cc3c21 [Example 191, 4-amino-1-methyl-N-(6-oxo-2,5-dioxa-7-azaspiro[3.4]octan-7-yl)-N-[[5-(trifluoromethyl)-2-pyridyl]methyl]pyrazolo[4,3-c]quinoline-8-carboxamide]",< 8.30,103,100 to 1000

# The next lines start with results.
pEC50 [2],EC50 selectivity (SDMA assay) [2],Structure (SMILES),CC50 [1] [nM]
8.30 to 9.00,153,"CN(CC1CCC1)N(Cc1ccc(C(F)(F)F)cn1)C(=O)c1ccc2nc(N)c3cnn(C)c3c2c1 [Example 172, 4-amino-N′-(cyclobutylmethyl)-N′,1-dimethyl-N-[[5-(trifluoromethyl)-2-pyridyl]methyl]pyrazolo[4,3-c]quinoline-8-carbohydrazide]",< 100
> 9.00,117,"CN(CC1CC1)N(Cc1ccc(C(F)(F)F)cn1)C(=O)c1ccc2nc(N)c3cnn(C)c3c2c1 [Example 173, 4-amino-N′-(cyclopropylmethyl)-N′,1-dimethyl-N-[[5-(trifluoromethyl)-2-pyridyl]methyl]pyrazolo[4,3-c]quinoline-8-carbohydrazide]",< 100
> 9.00,24,"CN(CC1CC1)N(Cc1ccc(C(F)(F)F)cn1)C(=O)c1cc2c(cc1F)nc(N)c1cnn(C)c12 [Example 174, 4-amino-N′-(cyclopropylmethyl)-7-fluoro-N′,1-dimethyl-N-[[5-(trifluoromethyl)-2-pyridyl]methyl]pyrazolo[4,3-c]quinoline-8-carbohydrazide]",< 100
8.30 to 9.00,441,"CC(=O)N(C)N(Cc1ccccc1F)C(=O)c1ccc2nc(N)c3cnn(C)c3c2c1 [Example 181, N′-acetyl-4-amino-N-(2-fluorobenzyl)-N′,1-dimethyl-1H-pyrazolo[4,3-c]quinoline-8-carbohydrazide]",100 to 1000
> 9.00,209,"CC(=O)N(C)N(Cc1ccccc1F)C(=O)c1cc2c(cc1F)nc(N)c1cnn(C)c12 [Example 182, N′-acetyl-4-amino-7-fluoro-N-(2-fluorobenzyl)-N′,1-dimethyl-1H-pyrazolo[4,3-c]quinoline-8-carbohydrazide]",< 100
8.30 to 9.00,300,"CC(=O)N(C)N(Cc1ccccc1Cl)C(=O)c1ccc2nc(N)c3cnn(C)c3c2c1 [Example 183, N′-acetyl-4-amino-N-(2-chlorobenzyl)-N′,1-dimethyl-1H-pyrazolo[4,3-c]quinoline-8-carbohydrazide]",< 100
< 8.30,195,"CN(C(=O)c1cccnn1)N(Cc1ccc(C(F)(F)F)cn1)C(=O)c1ccc2nc(N)c3cnn(C)c3c2c1 [Example 184, 14-amino-N′,1-dimethyl-N′-(pyridazine-3-carbonyl)-N-((5-(trifluoromethyl)pyridin-2-yl)methyl)-1H-pyrazolo[4,3-c]quinoline-8-carbohydrazide]",> 1000
8.30 to 9.00,50,"COC12CC(C(=O)N(C)N(Cc3ccc(C(F)(F)F)cn3)C(=O)c3ccc4nc(N)c5cnn(C)c5c4c3)(C1)C2 [Example 187, 4-amino-N′-(3-methoxybicyclo[1.1.1]pentane-1-carbonyl)-N′,1-dimethyl-N-[[5-(trifluoromethyl)-2-pyridyl]methyl]pyrazolo[4,3-c]quinoline-8-carbohydrazide]",< 100
< 8.30,62,"CN(C(=O)C12CC(C#N)(C1)C2)N(Cc1ccc(C(F)(F)F)cn1)C(=O)c1ccc2nc(N)c3cnn(C)c3c2c1 [Example 188, 4-amino-N′-(3-cyanobicyclo[1.1.1]pentane-1-carbonyl)-N′,1-dimethyl-N-[[5-(trifluoromethyl)-2-pyridyl]methyl]pyrazolo[4,3-c]quinoline-8-carbohydrazide]",100 to 1000
